According to the NIST ThermoML archive (doi:10.1021/je9006019):
Values joined by “and” are separate entries in the source; they are usually repeats but may differ in a detail not shown here. Equal values may be shown once. ± gives the expanded uncertainty stated by the source.

Assay: mn = molality of the nth substance listed, in mol/kg
Details: 101 kPa, Liquid; for viscosity: Capillary tube (Ostwald / Ubbelohde) method; for electrical conductivity: DIgital conductivity meter (306) of Systronics; for speed of sound: Pulse-echo method

## CCCCCCCCCCCCOS(=O)(=O)[O-].[Na+] [sodium dodecyl sulfate] + O
298.15 K, m1 = 0.05
  viscosity: 0.986 ± 0.01 mPa·s
  electrical conductivity: 1 ± 0.6 S/m
  speed of sound: 1498.3 ± 1.3 m/s and 1498.3 ± 1 m/s
  mass density: 999.078 ± 0.43 kg/m3
298.15 K, m1 = 0.1
  viscosity: 1.133 ± 0.012 mPa·s
  electrical conductivity: 2.6 ± 0.6 S/m
  speed of sound: 1498 ± 1.3 m/s
  mass density: 1000.97 ± 0.44 kg/m3
298.15 K, m1 = 0.001
  speed of sound: 1497.2 ± 1 m/s
298.15 K, m1 = 0.003
  speed of sound: 1497.5 ± 1 m/s
298.15 K, m1 = 0.005
  speed of sound: 1497.8 ± 1 m/s
298.15 K, m1 = 0.007
  speed of sound: 1497.9 ± 1 m/s
298.15 K, m1 = 0.008
  speed of sound: 1497.9 ± 1 m/s
298.15 K, m1 = 0.01
  speed of sound: 1498.1 ± 1 m/s
298.15 K, m1 = 0.02
  speed of sound: 1498.2 ± 1 m/s
298.15 K, m1 = 0.03
  speed of sound: 1498.4 ± 1 m/s
298.15 K, m1 = 0.07
  speed of sound: 1498.2 ± 1 m/s
298.15 K, m1 = 0.103
  speed of sound: 1498.2 ± 1 m/s
303.15 K, m1 = 0.001
  speed of sound: 1509.5 ± 1 m/s
303.15 K, m1 = 0.003
  speed of sound: 1509.8 ± 1 m/s
303.15 K, m1 = 0.005
  speed of sound: 1510.1 ± 1 m/s
303.15 K, m1 = 0.007
  speed of sound: 1510.1 ± 1 m/s
303.15 K, m1 = 0.008
  speed of sound: 1510.2 ± 1 m/s
303.15 K, m1 = 0.01
  speed of sound: 1510.3 ± 1 m/s
303.15 K, m1 = 0.02
  speed of sound: 1510.3 ± 1 m/s
303.15 K, m1 = 0.03
  speed of sound: 1510.4 ± 1 m/s
303.15 K, m1 = 0.05
  speed of sound: 1510.2 ± 1 m/s
303.15 K, m1 = 0.07
  speed of sound: 1509.9 ± 1 m/s
303.15 K, m1 = 0.103
  speed of sound: 1509.7 ± 1 m/s
308.15 K, m1 = 0.05
  viscosity: 0.79 ± 0.009 mPa·s
  electrical conductivity: 2.1 ± 0.6 S/m
  speed of sound: 1520.3 ± 1 m/s and 1520.2 ± 1.3 m/s
  mass density: 995.942 ± 0.44 kg/m3
308.15 K, m1 = 0.1
  viscosity: 0.87 ± 0.01 mPa·s
  electrical conductivity: 3.4 ± 0.6 S/m
  speed of sound: 1519.1 ± 1.3 m/s
  mass density: 997.734 ± 0.44 kg/m3
308.15 K, m1 = 0.001
  speed of sound: 1520.1 ± 1 m/s
308.15 K, m1 = 0.003
  speed of sound: 1520.4 ± 1 m/s
308.15 K, m1 = 0.005
  speed of sound: 1520.6 ± 1 m/s
308.15 K, m1 = 0.007
  speed of sound: 1520.7 ± 1 m/s
308.15 K, m1 = 0.008
  speed of sound: 1520.7 ± 1 m/s
308.15 K, m1 = 0.01
  speed of sound: 1520.8 ± 1 m/s
308.15 K, m1 = 0.02
  speed of sound: 1520.8 ± 1 m/s
308.15 K, m1 = 0.03
  speed of sound: 1520.7 ± 1 m/s
308.15 K, m1 = 0.07
  speed of sound: 1519.9 ± 1 m/s
308.15 K, m1 = 0.103
  speed of sound: 1519.3 ± 1 m/s
313.15 K, m1 = 0.001
  speed of sound: 1529 ± 1 m/s
313.15 K, m1 = 0.003
  speed of sound: 1529.3 ± 1 m/s
313.15 K, m1 = 0.005
  speed of sound: 1529.5 ± 1 m/s
313.15 K, m1 = 0.007
  speed of sound: 1529.5 ± 1 m/s
313.15 K, m1 = 0.008
  speed of sound: 1529.6 ± 1 m/s
313.15 K, m1 = 0.01
  speed of sound: 1529.7 ± 1 m/s
313.15 K, m1 = 0.02
  speed of sound: 1529.5 ± 1 m/s
313.15 K, m1 = 0.03
  speed of sound: 1529.4 ± 1 m/s
313.15 K, m1 = 0.05
  speed of sound: 1528.8 ± 1 m/s
313.15 K, m1 = 0.07
  speed of sound: 1528.2 ± 1 m/s
313.15 K, m1 = 0.103
  speed of sound: 1527.3 ± 1 m/s
